Results reported in patent US11253521B2, “3-hydroxy-quinazoline-2,4-dione derivatives and their use as nuclease modulators” (Ludwig Institute for Cancer Research Ltd, priority 2015, dated 2022).
pIC50: −log10 of the molar value.

Target: recombinant full-length FEN-1 (Homo sapiens (Human), UniProt P39748)
Assay: Fluorogenic biochemical (enzymatic) assay, FEN-1
Conditions: 200 nM DNA flap substrate, 50 mM Tris pH 8.0, 10 mM MgCl2, 2-4 hours at 25° C. or 37° C., read-out: SMD FEN-1 IC50
Description: Fluorogenic biochemical assays used recombinant full-length FEN-1 or catalytic domains of Exo1, XPG or GEN1 and 200 nM of a DNA substrate (formed by annealing three oligonucleotides—quencher (5′-CACGTTGACTACCGCTCAATCCTGACGAACACATC-BHQ2), flap (5′-TAMRA-GA TGTCAAGCAGTCCTAACTTTGAGGCAGAGTCCGC) and template (5′-GC GGACTCTGCCTCAAGACGGTAGTCAACGTG-3′) (PMID: 21062821)) in 50 mM Tris pH 8.0, 10 mM MgCl2, 1 mM DTT, and 0.01% Tween-20. Inhibitors arrayed in dose response were added from DMSO stocks (using a V&P 384-pintool head) to the enzyme solution in low volume, black polystyrene 384-well plates (Corning #3677) 15 minutes prior to the addition of the DNA substrate. Reactions were allowed to proceed for 2-4 hours at 25° C. or 37° C. Fluorescence data (Excitation: 530 nm/10 nm bandwidth; Emission: 590 nm/20 nm bandwith) were measured with an Infinite M1000 plate reader (Tecan).

recombinant full-length FEN-1, sequence (P39748 whole entry): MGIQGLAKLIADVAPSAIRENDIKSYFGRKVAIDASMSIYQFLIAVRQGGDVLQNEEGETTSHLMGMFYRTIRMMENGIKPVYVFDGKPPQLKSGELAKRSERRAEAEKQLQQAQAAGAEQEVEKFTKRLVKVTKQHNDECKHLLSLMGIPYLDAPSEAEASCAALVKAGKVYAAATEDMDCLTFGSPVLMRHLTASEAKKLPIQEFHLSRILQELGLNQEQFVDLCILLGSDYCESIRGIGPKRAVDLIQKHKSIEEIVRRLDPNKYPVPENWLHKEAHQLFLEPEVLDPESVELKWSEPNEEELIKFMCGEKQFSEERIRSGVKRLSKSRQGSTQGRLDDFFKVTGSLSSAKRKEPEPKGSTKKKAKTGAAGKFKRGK

pIC50 | Structure (SMILES)
6.77 | O=c1[nH]c2cc(F)ccc2c(=O)n1O [Compound 37]
7.38 | O=c1[nH]c2c(F)cccc2c(=O)n1O [Compound 36]
7.75 | Cc1cccc(S(=O)(=O)c2ccc(F)c3c(=O)n(O)c(=O)[nH]c23)c1 [Compound 67]
6.62 | O=c1[nH]c2ccccc2c(=O)n1O [Compound 12]
5.55 | O=c1c2cccnc2n(-c2ccccc2)c(=O)n1O [Compound 20]
7.54 | O=c1[nH]c2c(S(=O)(=O)c3cccc(Nc4ccccn4)c3)cccc2c(=O)n1O [Compound 62]
7.88 | O=c1[nH]c2c(S(=O)(=O)c3cccc(C(F)(F)F)c3)cccc2c(=O)n1O [Compound 41]
6.89 | O=c1[nH]c2c(S(=O)(=O)Cc3ccccc3)cccc2c(=O)n1O [Compound 30]
7.01 | O=c1[nH]c2cc(Cc3ccccc3)ccc2c(=O)n1O [Compound 27]
8.18 | COc1ccc(S(=O)(=O)c2ccccc2)c2[nH]c(=O)n(O)c(=O)c12 [Compound 78]
7.68 | O=c1[nH]c2cccc(Cl)c2c(=O)n1O [Compound 11]
7.78 | CC(=O)Nc1cccc(S(=O)(=O)c2cccc3c(=O)n(O)c(=O)[nH]c23)c1 [Compound 55]
7.80 | O=c1[nH]c2c(S(=O)(=O)c3cccc(Nc4ncccn4)c3)cccc2c(=O)n1O [Compound 60]
7.27 | O=c1[nH]c2c(Cc3ccccc3)cccc2c(=O)n1O [Compound 24]
7.10 | O=c1[nH]c2cc(S(=O)(=O)c3ccccc3)ccc2c(=O)n1O [Compound 22]
7.77 | COc1cc(OC)cc(S(=O)(=O)c2cccc3c(=O)n(O)c(=O)[nH]c23)c1 [Compound 65]
7.58 | O=c1[nH]c2c(S(=O)(=O)c3ccc(Cl)cc3)cccc2c(=O)n1O [Compound 33]
7.89 | O=c1[nH]c2c(S(=O)(=O)c3cccc(Br)c3)cccc2c(=O)n1O [Compound 46]
7.62 | Cc1ccc(S(=O)(=O)c2cccc3c(=O)n(O)c(=O)[nH]c23)cc1 [Compound 31]
6.86 | Cc1cccc(S(=O)(=O)c2c(Cl)ccc3c(=O)n(O)c(=O)[nH]c23)c1 [Compound 52]
6.97 | O=c1[nH]c2ncccc2c(=O)n1O [Compound 14]
7.78 | O=c1[nH]c2c(S(=O)(=O)c3cccs3)ccc(Cl)c2c(=O)n1O [Compound 79]
7.78 | O=c1[nH]c2c(S(=O)(=O)c3cc(Br)cc(Br)c3)cccc2c(=O)n1O [Compound 61]
7.84 | Cc1cccc(S(=O)(=O)c2cccc3c(=O)n(O)c(=O)[nH]c23)c1 [Compound 32]

pIC50 | Structure (SMILES)
6.41 | O=c1[nH]c2nc(-c3ccccc3)ccc2c(=O)n1O [Compound 16]
7.94 | O=c1[nH]c2c(S(=O)(=O)c3cccs3)cccc2c(=O)n1O [Compound 75]
8.25 | O=c1[nH]c2c(S(=O)(=O)c3ccc4[nH]cnc4c3)cccc2c(=O)n1O [Compound 72]
5.78 | O=c1[nH]c2cc(S(=O)(=O)Cc3ccccc3)cnc2c(=O)n1O [Compound 25]
8.00 | O=c1[nH]c2c(S(=O)(=O)c3cccc(F)c3)cccc2c(=O)n1O [Compound 69]
7.83 | N#Cc1cccc(S(=O)(=O)c2cccc3c(=O)n(O)c(=O)[nH]c23)c1 [Compound 56]
7.77 | NC(=O)Nc1cccc(S(=O)(=O)c2cccc3c(=O)n(O)c(=O)[nH]c23)c1 [Compound 63]
7.85 | CNC(=O)Nc1cccc(S(=O)(=O)c2cccc3c(=O)n(O)c(=O)[nH]c23)c1 [Compound 59]
8.07 | Nc1cc(N)cc(S(=O)(=O)c2cccc3c(=O)n(O)c(=O)[nH]c23)c1 [Compound 74]
7.74 | O=c1[nH]c2c(S(=O)(=O)c3cc(Cl)cc(Cl)c3)cccc2c(=O)n1O [Compound 54]
7.74 | CN(C)c1cc(N(C)C)cc(S(=O)(=O)c2cccc3c(=O)n(O)c(=O)[nH]c23)c1 [Compound 81]
7.80 | O=c1[nH]c2c(S(=O)(=O)c3cccc(O)c3)cccc2c(=O)n1O [Compound 47]
7.94 | Cc1cc(C)cc(S(=O)(=O)c2cccc3c(=O)n(O)c(=O)[nH]c23)c1 [Compound 50]
7.89 | O=c1[nH]c2c(S(=O)(=O)c3cc(F)cc(F)c3)cccc2c(=O)n1O [Compound 57]
7.81 | O=c1[nH]c2c(S(=O)(=O)c3ccccc3)cc(F)cc2c(=O)n1O [Compound 40]
6.87 | O=c1[nH]c2nc(S(=O)(=O)c3ccccc3)ccc2c(=O)n1O [Compound 19]
8.03 | COc1ccc(S(=O)(=O)c2cccc(C)c2)c2[nH]c(=O)n(O)c(=O)c12 [Compound 80]
5.88 | O=c1[nH]c2ccncc2c(=O)n1O [Compound 13]
7.96 | O=c1[nH]c2nc(Cc3ccccc3)ccc2c(=O)n1O [Compound 23]
7.71 | O=c1[nH]c2cccc(Br)c2c(=O)n1O [Compound 35]
8.00 | O=c1[nH]c2c(S(=O)(=O)c3ccccc3)ccc(Cl)c2c(=O)n1O [Compound 43]
8.17 | O=c1[nH]c2c(S(=O)(=O)c3cc(F)cc(F)c3)ccc(Cl)c2c(=O)n1O [Compound 71]
7.11 | O=c1[nH]c2c(Cc3ccccc3)ccc(Cl)c2c(=O)n1O [Compound 28]
7.83 | CN(C)c1cccc(S(=O)(=O)c2cccc3c(=O)n(O)c(=O)[nH]c23)c1 [Compound 64]

pIC50 | Structure (SMILES)
8.01 | O=c1[nH]c2c(S(=O)(=O)c3cccc(F)c3)ccc(Cl)c2c(=O)n1O [Compound 70]
8.03 | Cc1cc(Cl)cc(S(=O)(=O)c2ccc(Cl)c3c(=O)n(O)c(=O)[nH]c23)c1 [Compound 76]
6.66 | O=c1[nH]c2ccc(F)cc2c(=O)n1O [Compound 38]
8.03 | Cc1cccc(S(=O)(=O)c2ccc(Cl)c3c(=O)n(O)c(=O)[nH]c23)c1 [Compound 48, 5-chloro-3-hydroxy-8-(m-tolylsulfonyl)quinazoline-2,4(1H,3H)-dione]
7.58 | O=c1[nH]c2c(S(=O)(=O)c3cccc(Cl)c3)cccc2c(=O)n1O [Compound 34]
7.62 | O=c1[nH]c2c(S(=O)(=O)c3ccccc3)cccc2c(=O)n1O [Compound 21]
7.96 | Cc1cccc(S(=O)(=O)c2cc(Cl)cc3c(=O)n(O)c(=O)[nH]c23)c1 [Compound 44]
8.03 | O=c1[nH]c2c(S(=O)(=O)c3cc(O)cc(O)c3)cccc2c(=O)n1O [Compound 66]
7.45 | Nc1cccc(S(=O)(=O)c2cccc3c(=O)n(O)c(=O)[nH]c23)c1 [Compound 49]
6.45 | O=c1[nH]c2cc(-c3ccccc3)ccc2c(=O)n1O [Compound 15]
8.12 | CC(=O)Nc1cc(NC(C)=O)cc(S(=O)(=O)c2cccc3c(=O)n(O)c(=O)[nH]c23)c1 [Compound 73]
7.86 | Cc1cccc(S(=O)(=O)c2cc(F)cc3c(=O)n(O)c(=O)[nH]c23)c1 [Compound 53]
7.26 | O=c1[nH]c2cccc(F)c2c(=O)n1O [Compound 39]
7.85 | O=c1[nH]c2c(S(=O)(=O)c3ccc(Br)cc3)cccc2c(=O)n1O [Compound 45]
7.78 | COc1cccc(S(=O)(=O)c2cccc3c(=O)n(O)c(=O)[nH]c23)c1 [Compound 42]
6.95 | O=c1[nH]c2c(-c3ccccc3)cccc2c(=O)n1O [Compound 18]
5.48 | Cn1c(=O)n(O)c(=O)c2cccnc21 [Compound 17]
6.80 | O=c1[nH]c2cc(S(=O)(=O)Cc3ccccc3)ccc2c(=O)n1O [Compound 29]
7.72 | Cc1cccc(S(=O)(=O)c2c(F)ccc3c(=O)n(O)c(=O)[nH]c23)c1 [Compound 51]
7.03 | O=c1[nH]c2c(S(=O)(=O)c3ccccc3)c(F)ccc2c(=O)n1O [Compound 68]
7.43 | O=c1[nH]c2c(-c3ccccc3)ccc(Cl)c2c(=O)n1O [Compound 26]
8.07 | Cc1cc(F)cc(S(=O)(=O)c2ccc(Cl)c3c(=O)n(O)c(=O)[nH]c23)c1 [Compound 77]
7.89 | COC(=O)Nc1cccc(S(=O)(=O)c2cccc3c(=O)n(O)c(=O)[nH]c23)c1 [Compound 58]
